The values below come from US4110330A, “5'-Acetonylvincristine and related compounds” (priority 1977, dated 1978).

SMILES strings stand for the structures. Where “and” joins values, the source holds several entries; their conditions need not be identical. Equal entries are not always repeated.

The subject of series [1] is experimental maliganancies. As to conditions: background; cited from earlier work.
Series [2] has as its system Ridgeway Osteogenic Sarcoma (ROS). Briefly: Transplanted tumor ROS in mice, percent inhibition of tumor growth or percent prolongation of survival time. It counts as in vivo. The method, then: (§1) The compounds of this invention are antimitotic agents being active in tissue culture and against transplanted tumors in mice.
(§2) The following table -- Table 1 -- gives the results of several experiments in which mice bearing transplanted tumors were treated successfully with a compound of this invention. The following abbreviations are employed: Compound A is 5'-acetonylvincristine sulfate; B and C are the corresponding dehydrated hemiketal sulfate and free base; D is 4-desacetyl-5'-acetonylvincristine; GLS is Gardner lymphosarcoma; ROS is Ridgeway Osteogenic Sarcoma and CA755 is an adenocarcinoma. In the table, column 1 gives the compound designation; column 2, the abbreviation of the name of transplanted tumor; column 3, the dose level and the number of days that dosage was administered; and column 4, the percent inhibition of tumor growth or percent prolongation of survival time

For series [3], the system named is Gardner lymphosarcoma (GLS). Briefly: Transplanted tumor GLS in mice, percent inhibition of tumor growth or percent prolongation of survival time. It counts as in vivo. The method, then: as §1, §2
The next series relates to CA755 (adenocarcinoma). Briefly: Transplanted tumor CA755 in mice, percent inhibition of tumor growth or percent prolongation of survival time. It counts as in vivo. The method, then: as §1, §2
Setting [4] is: 0.05 mg/kg × 9 days, marked *: not statistically significantly different from control.
The mark [5] stands for this setting: 0.3 mg/kg × 7 days, marked *: not statistically significantly different from control.

As to `CCC1(O)CN2CCc3c([nH]c4ccccc34)C(C(=O)OC)(c3cc4c(cc3OC)N(C)C3C(O)(C(=O)OC)CC5(CC)C=CCN6CCC43C65)CC(C2)C1O` (centres unmarked) [4-desacetoxy-3'-hydroxyvinblastine], in series [1], the “activity in the treatment of experimental malignancies in animals” value (“activity in the treatment” below) was “active”.
`CC[C@]1(O)C[C@H]2CN(CCc3c([nH]c4ccccc34)[C@@](C(=O)OC)(c3cc4c(cc3OC)N(C)[C@@H]3[C@]45CCN4CC=C[C@@](CC)(C[C@]3(O)C(=O)OC)[C@H]45)C2)C1` [4-desacetoxyvinblastine]: in series [1], the “activity in the treatment” value is recorded as “active”.
As to `CCC12CC3CN(CCc4c([nH]c5ccccc45)C(C(=O)OC)(c4cc5c(cc4OC)N(C=O)C4C(O)(C(=O)OC)C(OC(C)=O)C6(CC)C=CCN7CCC54C76)C3)C1C=C(C)O2.O=S(=O)(O)O` (centres unmarked) [B, 2",3"-dehydro-5'-acetonylvincristine 1",2"-hemiketal], the “percent inhibition of tumor growth or percent prolongation of survival time” value (from here on “percent inhibition”) in series [2] (0.1 mg/kg × 10 days) came to 39%; in series [2] (0.2 mg/kg × 10 days), 26%; in series [2] (0.3 mg/kg × 10 days, marked *: not statistically significantly different from control) it was 14%; in series [2] (0.5 mg/kg × 10 days, marked *: not statistically significantly different from control), 0%; in series [2] (1.0 mg/kg × 10 days, marked *: not statistically significantly different from control) it was 0%; in series [3] (setting [4]), 13%. Also, the “percent inhibition” value is 0% in series [3] (0.1 mg/kg × 7 days); 21% in series [3] (0.1 mg/kg × 9 days, marked *: not statistically significantly different from control); 21% in series [3] (0.2 mg/kg × 7 days, marked *: not statistically significantly different from control); 8% in series [3] (0.2 mg/kg × 9 days, marked *: not statistically significantly different from control); 22% and 37% in series [3] (setting [5]); 36% in series [3] (0.3 mg/kg × 9 days). Also, the “percent inhibition” value is 54% and 39% and 59% in series [3] (0.5 mg/kg × 7 days); 71% in series [3] (0.5 mg/kg × 9 days); 100% and 76% and 96% in series [3] (1.0 mg/kg × 7 days); 93% in series [3] (1.0 mg/kg × 9 days); 100% in series [3] (5.0 mg/kg × 7 days).
As to `CCC12CC3CN(CCc4c([nH]c5ccccc45)C(C(=O)OC)(c4cc5c(cc4OC)N(C=O)C4C(O)(C(=O)OC)C(OC(C)=O)C6(CC)C=CCN7CCC54C76)C3)C1C=C(C)O2` (centres unmarked) [C, 2",3"-dehydro-5'-acetonylvincristine 1",2"-hemiketal], the “percent inhibition” value is on record as 57% in series [3] (0.5 mg/kg × 7 days); 2% in series [3] (0.5 mg/kg × 7 days, marked *: not statistically significantly different from control); 100% in series [3] (1.0 mg/kg × 7 days); 5% in series [3] (1.0 mg/kg × 7 days, marked *: not statistically significantly different from control); 100% in series [3] (5.0 mg/kg × 7 days).
As for `CCC1(O)CC2CN(CCc3c([nH]c4ccccc34)C(C(=O)OC)(c3cc4c(cc3OC)N(C=O)C3C(O)(C(=O)OC)C(OC(C)=O)C5(CC)C=CCN6CCC43C65)C2)C1CC(C)=O.O=S(=O)(O)O` (centres unmarked) [Compound A, 5'-acetonylvincristine sulfate], the “toxicity” value in series [2] (0.05 mg/kg × 10 days), in series [2] (0.5 mg/kg × 10 days) and in series [2] (1.0 mg/kg × 10 days) was “TOXIC” throughout. The “percent inhibition” value came out at 0% in series [2] (0.1 mg/kg × 10 days); 60% in series [2] (0.2 mg/kg × 10 days); 34% in series [2] (0.3 mg/kg × 10 days); 39% in the series on CA755 (adenocarcinoma) (0 mg/kg × 8 days (so in the source)); 21% with CA755 (adenocarcinoma) (0.3 mg/kg × 8 days, marked *: not statistically significantly different from control); 39% in the series with CA755 (adenocarcinoma) (0.5 mg/kg × 8 days). Besides, the “percent inhibition” value was 34% in the series on CA755 (adenocarcinoma) (5.0 mg/kg × 8 days); 8% in series [3] (setting [4]); 39% in series [3] (0.3 mg/kg × 7-9 days); 13% in series [3] (0.3 mg/kg × 7-9 days, marked *: not statistically significantly different from control); 49% and 65% in series [3] (0.5 mg/kg × 7-9 days); 81% and 86% in series [3] (1.0 mg/kg × 7-9 days).
As to `CCC1(O)CC2CN(CCc3c([nH]c4ccccc34)C(C(=O)OC)(c3cc4c(cc3OC)N(C=O)C3C(O)(C(=O)OC)C(O)C5(CC)C=CCN6CCC43C65)C2)C1CC(C)=O` (centres unmarked) [D, 4-desacetyl-5'-acetonylvincristine], the “percent inhibition” value in series [3] (setting [5]) is 0%; in series [3] (0.5 mg/kg × 7 days) it was 37% and 26%; in series [3] (1.0 mg/kg × 7 days), 100% and 62%.
For the compound `CC[C@]1(O)C[C@@H]2CN(CCc3c([nH]c4ccccc34)[C@@](C(=O)OC)(c3cc4c(cc3OC)N(C)[C@H]3[C@@](O)(C(=O)OC)[C@H](OC(C)=O)[C@]5(CC)C=CCN6CC[C@]43[C@@H]65)C2)C1` [VLB, vincaleukoblastine], in series [1], the “activity in the treatment” value is on record as “active”.
On to `CCC1CC2CN(CCc3c([nH]c4ccccc34)C(C(=O)OC)(c3cc4c(cc3OC)N(C)C3C(O)(C(=O)OC)C(OC(C)=O)C5(CC)C=CCN6CCC43C65)C2)C1` (centres unmarked) [deoxy VLB "A"], for which, in series [1], the “activity in the treatment” value is on record as “active”.
Take `CCC1(O)CN2CCc3c([nH]c4ccccc34)C(C(=O)OC)(c3cc4c(cc3OC)N(C)C3C(O)(C(=O)OC)C(OC(C)=O)C5(CC)C=CCN6CCC43C65)CC(O)(C2)C1` (centres unmarked) [leurocolombine]: in series [1], the “activity in the treatment” value is given as “active”.
`CC[C@]1(O)C[C@H]2CN(CCc3c([nH]c4ccccc34)[C@@](C(=O)OC)(c3cc4c(cc3OC)N(C=O)[C@H]3[C@@](O)(C(=O)OC)[C@H](OC(C)=O)[C@]5(CC)C=CCN6CC[C@]43[C@@H]65)C2)C1` [leurocristine]: the “activity in the treatment” value in series [1] is recorded as “active”.
As to `CC[C@]12CN3CCc4c([nH]c5ccccc45)[C@@](C(=O)OC)(c4cc5c(cc4OC)N(C=O)[C@H]4[C@@](O)(C(=O)OC)[C@H](OC(C)=O)[C@]6(CC)C=CCN7CC[C@]54[C@@H]76)C[C@@H](C3)[C@H]1O2` [leuroformine, N-formylleurosine], the “activity in the treatment” value in series [1] is “active”.
Turning to `CC[C@@]1(O)C[C@@H]2CN(CCc3c([nH]c4ccccc34)[C@@](C(=O)OC)(c3cc4c(cc3OC)N(C)[C@H]3[C@@](O)(C(=O)OC)[C@H](OC(C)=O)[C@]5(CC)C=CCN6CC[C@]43[C@@H]65)C2)C1` [leurosidine], in series [1], the “activity in the treatment” value is on record as “active”.
On to `CC[C@]12CN3CCc4c([nH]c5ccccc45)[C@@](C(=O)OC)(c4cc5c(cc4OC)N(C)[C@H]4[C@@](O)(C(=O)OC)[C@H](OC(C)=O)[C@]6(CC)C=CCN7CC[C@]54[C@@H]76)C[C@H](C3)[C@H]1O2` [leurosine], for which the “activity in the treatment” value in series [1] is recorded as “active”.
`CCC1(O)CN2CCc3c([nH]c4ccccc34)C(C(=O)OC)(c3cc4c(cc3OC)N(C)C3C(O)(C(=O)OC)C(OC(C)=O)C5(CC)C=CCN6CCC43C65)CC(C2)C1O` (centres unmarked) [vincadioline]: in series [1], the “activity in the treatment” value was “active”.
